From ChEMBL document CHEMBL1201862, “PubChem BioAssay data set” (2004)
Activity calls are given as the source filed them.

Experiments:
[1] = general cell-killing toxicity readout – plate reader, dry powder samples, cytotoxicity control for PAX8 inhibitor project, dose response (AID 743021); assay type: functional, cell-based
[2] = target: Paired box protein Pax-8 (Homo sapiens, UniProt Q06710); experiment: PAX8 transcriptional activity inhibition in RMG-I – RMG-I cells, luciferase, cherry-pick, dose response (AID 687027); assay type: functional, cell-based;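 also: luciferase reporter driven by Pax8 target thyroperoxidase promoter measured by SteadyGlo luminescence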
Paired box protein Pax-8, sequence (Q06710 whole entry): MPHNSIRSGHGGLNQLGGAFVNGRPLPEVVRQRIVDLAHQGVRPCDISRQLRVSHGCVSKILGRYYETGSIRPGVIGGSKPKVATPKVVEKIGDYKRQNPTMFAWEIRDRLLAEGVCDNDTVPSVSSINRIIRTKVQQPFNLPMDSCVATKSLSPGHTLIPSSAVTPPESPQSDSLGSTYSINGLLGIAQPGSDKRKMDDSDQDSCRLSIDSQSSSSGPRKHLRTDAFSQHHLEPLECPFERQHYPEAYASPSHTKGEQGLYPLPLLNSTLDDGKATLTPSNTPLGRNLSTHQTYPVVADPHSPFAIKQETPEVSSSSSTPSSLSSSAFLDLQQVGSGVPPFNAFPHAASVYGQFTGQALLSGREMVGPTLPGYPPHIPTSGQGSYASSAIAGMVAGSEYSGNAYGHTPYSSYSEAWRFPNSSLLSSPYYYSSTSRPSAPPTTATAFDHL

[3] = system: HEK293; experiment: EBV LMP1 TES2 canonical NF-kB signalling blockers – cell-based, HEK293, luciferase, cherry-pick, dose response (AID 588343); assay type: functional; conditions: Homo sapiens
[4] = target: T1, Caspase-6 (Homo sapiens, UniProt P55212); experiment: inhibition of CASP6 peptide cleavage – biochemical, VEID-R110 fluorescence, cherry-pick, dose response (AID 720632)
T1 sequence (P55212 whole entry): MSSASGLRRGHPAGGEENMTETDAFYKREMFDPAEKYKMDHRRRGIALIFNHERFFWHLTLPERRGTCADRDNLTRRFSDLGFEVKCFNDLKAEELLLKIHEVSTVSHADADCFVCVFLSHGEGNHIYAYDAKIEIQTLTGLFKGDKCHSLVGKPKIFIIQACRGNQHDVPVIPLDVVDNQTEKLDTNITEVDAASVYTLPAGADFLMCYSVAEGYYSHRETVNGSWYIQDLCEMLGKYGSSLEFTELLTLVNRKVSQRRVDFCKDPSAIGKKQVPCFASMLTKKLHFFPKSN

[5] = fluconazole-exposed Candida albicans growth modulators – fluorescence, retest, confirmation (AID 2467); assay type: functional, cell-based
[6] = target: T2, Rac GTPase-activating protein 1 (Homo sapiens, UniProt Q9H0H5); experiment: blockers of MgcRacGAP-driven Rac1 GTP hydrolysis – biochemical, ADP Hunter fluorescence, primary and confirmatory, confirmation (AID 624330); assay type: functional
T2 sequence (Q9H0H5 whole entry): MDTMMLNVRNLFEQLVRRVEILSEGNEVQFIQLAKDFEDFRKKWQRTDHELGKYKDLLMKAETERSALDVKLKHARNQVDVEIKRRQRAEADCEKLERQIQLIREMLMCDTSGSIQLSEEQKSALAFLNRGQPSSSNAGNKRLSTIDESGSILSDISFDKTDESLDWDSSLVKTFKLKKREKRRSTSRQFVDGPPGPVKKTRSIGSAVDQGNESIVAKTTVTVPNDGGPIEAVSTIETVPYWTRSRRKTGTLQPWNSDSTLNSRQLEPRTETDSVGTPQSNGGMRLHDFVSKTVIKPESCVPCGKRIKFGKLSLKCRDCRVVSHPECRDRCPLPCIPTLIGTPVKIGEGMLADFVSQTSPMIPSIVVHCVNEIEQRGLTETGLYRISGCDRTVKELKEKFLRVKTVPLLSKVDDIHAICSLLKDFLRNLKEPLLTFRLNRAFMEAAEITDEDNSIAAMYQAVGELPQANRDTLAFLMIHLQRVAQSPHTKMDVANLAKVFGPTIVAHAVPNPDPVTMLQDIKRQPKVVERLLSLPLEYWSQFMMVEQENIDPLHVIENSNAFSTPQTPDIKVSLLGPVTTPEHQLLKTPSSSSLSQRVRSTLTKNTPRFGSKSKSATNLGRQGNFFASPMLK

[7] = A High Throughput Confirmatory Assay used to Identify Novel Compounds that Inhibit Mycobacterium Tuberculosis in the absence of Glycerol.; assay type: functional
[8] = NIH-3T3 fibroblast cytotoxicity, dose response, cytotoxicity control, cell-based, fluorescence, Alamar Blue, secondary assay (AID 2327); assay type: functional;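 also: NIH-3T3 mouse fibroblasts cultured with fluconazole at 8 µg/mL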
[9] = Luminescence Cell-Based Dose Retest to Confirm Inhibitors of Cancer Stem Cells. [Related pubchem assays (depositor defined):AID2717, AID2721]; assay type: functional; conditions: Homo sapiens
[10] = reduction of Shn3 3'UTR-driven luciferase in osteoblasts – cell-based, Clone20 osteoblasts, firefly luciferase, cherry-picked, dose response (AID 624132); assay type: functional;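 also: firefly luciferase luminescence from reporter carrying the Shn3 3'UTR in osteoblasts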
[11] = non-specific 3'UTR reporter inhibition in Clone20-Shn3RL – cell-based, Renilla luciferase, cherry-picked, counter-screen for Shn3 inhibitor project, dose response (AID 624133); assay type: functional
[12] = loss of viability in HepG2 cells – cell-based, CellTiter-Glo, cherry-picked, cytotoxicity control for Shn3 inhibitor project, dose response (AID 624134); assay type: functional
[13] = target: Genome polyprotein (dengue virus type 2, UniProt P29990); experiment: flavivirus cap methylation enzyme inhibition – biochemical, confirmation dose response, primary screen (AID 588689); assay type: functional
Genome polyprotein, sequence (P29990 2492-3391 limits assumed): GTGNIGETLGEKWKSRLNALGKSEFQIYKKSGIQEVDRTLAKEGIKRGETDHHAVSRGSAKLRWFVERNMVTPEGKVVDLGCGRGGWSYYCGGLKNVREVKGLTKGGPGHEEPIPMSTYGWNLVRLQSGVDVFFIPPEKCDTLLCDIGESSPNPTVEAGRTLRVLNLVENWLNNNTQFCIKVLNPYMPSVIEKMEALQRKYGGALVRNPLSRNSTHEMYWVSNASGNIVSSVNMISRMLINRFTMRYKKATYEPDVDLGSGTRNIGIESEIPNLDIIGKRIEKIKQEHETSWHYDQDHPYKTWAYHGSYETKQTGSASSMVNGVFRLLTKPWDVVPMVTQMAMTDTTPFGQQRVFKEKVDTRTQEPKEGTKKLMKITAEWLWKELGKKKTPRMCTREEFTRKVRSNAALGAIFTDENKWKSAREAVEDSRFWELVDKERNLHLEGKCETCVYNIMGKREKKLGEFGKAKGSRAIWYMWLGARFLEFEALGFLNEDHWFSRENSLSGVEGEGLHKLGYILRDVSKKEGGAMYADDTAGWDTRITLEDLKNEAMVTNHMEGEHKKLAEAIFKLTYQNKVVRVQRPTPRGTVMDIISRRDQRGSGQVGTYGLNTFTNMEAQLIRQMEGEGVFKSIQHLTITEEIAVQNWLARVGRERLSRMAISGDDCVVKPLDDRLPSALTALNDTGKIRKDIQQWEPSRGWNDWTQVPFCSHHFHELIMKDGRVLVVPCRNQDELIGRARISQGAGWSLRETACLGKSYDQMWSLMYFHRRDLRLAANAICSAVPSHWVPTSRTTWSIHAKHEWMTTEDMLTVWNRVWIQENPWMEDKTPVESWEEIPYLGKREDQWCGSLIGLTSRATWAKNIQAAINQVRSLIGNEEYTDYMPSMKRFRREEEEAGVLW

[14] = OVCAR8 cell viability loss – plate reader, dry powder samples, PAX8 project, dose response (AID 743197); assay type: functional, cell-based; conditions: OVCAR-8
[15] = OVCAR-3 cell viability loss – plate reader, dry powder samples, PAX8 inhibitor project, dose response (AID 743044); assay type: functional, cell-based

C(=NNc1ccc2ccccc2n1)c1ccccn1
AC50 [1]: 58.9 µM (active) | AC50 [2]: 2.95 µM (active)

COc1ccc(C(=O)Nc2ccc(N3CCN(C(=O)c4ccccc4C)CC3)cc2)cc1
AC50 [3]: 4.67 µM (active)

O=C(O)c1ccccc1NS(=O)(=O)c1ccc(NN=Cc2ccccc2F)c([N+](=O)[O-])c1
AC50 [4]: 19 µM (active)

O=C1NN(c2ccc(Br)cc2)C(=O)/C1=C\c1ccc(O)cc1O
EC50 [5]: > 38 µM (not active) | IC50 [6]: 159 µM (active) | IC50 [7]: > 100 µM (active) | EC50 [8]: > 150 µM (inconclusive)

Nc1cc([N+](=O)[O-])cc2oc(-c3ccccc3)cc12
IC50 [7]: > 100 µM (active)

CCCSc1nnc(CSc2nc3ccccc3s2)n1-c1ccccc1
AC50 [9]: 2.8 µM (active) | AC50 [10]: 7.05 µM (active) | AC50 [11]: 22.7 µM (active) | AC50 [12]: > 70 µM (inactive)

O=C(COC(=O)c1ccc([N+](=O)[O-])o1)Nc1ccc(Br)cc1F
AC50 [4]: 40.1 µM (active)

COc1cc(/C=C2/SC(=S)N(CC(=O)O)C2=O)ccc1OC(=O)c1cccs1
IC50 [13]: 88.3 µM (active)

Cc1ccccc1C(=O)N1CCN(c2ccc(NC(=O)c3cccs3)cc2)CC1
AC50 [3]: 0.788 µM (active)

Oc1ccc(/N=C/c2c(O)ccc3ccccc23)cc1
AC50 [4]: 10 µM (active)

CC(C)CC#Cc1ccc2c(c1)O[C@H](CN(C)S(=O)(=O)c1ccc(F)cc1)[C@H](C)CN([C@H](C)CO)S2(=O)=O
AC50 [1]: 61.2 µM (active) | AC50 [14]: 57.1 µM (active) | AC50 [15]: 31.9 µM (active) | AC50 [2]: 14.5 µM (active)

CC(C)c1ccc(N2C(=O)C(Cl)=C(N3CCOCC3)C2=O)cc1
IC50 [13]: 69.4 µM (active)
